Laboratory results: patent publication US5401772A, “Heteroacetic acid derivatives” (Ciba-Geigy Corporation, priority 1993, dated 1995)

Key:
Assay type in all cases: in vivo
serum cholesterol [1] = assay: Cholesterol lowering activity in the rat (high cholesterol diet); details: po, 168 h, p.o., 7 consecutive days, read-out: daily dose that significantly lowers serum cholesterol
Method: Cholesterol lowering activity is determined in the rat as follows:
(§1) Male Sprague-Dawley rats (230-250 g) (Taconic Farms) are maintained ad libium on water and a high cholesterol diet (1.5% cholesterol and 0.5% cholic acid) for two weeks prior to and during the 7-day treatment period. Groups of animals are treated orally by gavage with the vehicle alone or with test compound for 7 consecutive days. After the host dose, animals are fasted for 18 hours and blood is collected. Blood samples are centrifuged at 2500 rpm for 10 minutes to prepare plasma for total cholesterol determination as well as LDL and HDL cholesterol concentrations. HDL values are determined after LDL/VLDL precipitation (Warnick and Albers, 1978). All samples are analyzed enzymatically for cholesterol with a diagnostic reagent kit (Sigma Chemical Co., St. Louis, MO). The analysis is performed on a Bio-Mek automated work station. LDL/VLDL fractions are precipitated in the following manner: 0.35 ml of plasma is aliquoted into Eppendorf tubes to which 12 μl of 2M manganese chloride, 11.2 μl of sodium heparin (Porcine Intestinal, 5000 units/ml), and 8.3 μl of normal saline are added. The samples are vortexed and are placed on ice for 15 minutes, then centrifuged at 4° C. for 10 minutes at 1300 rpm and the supernatant is enzymatically analyzed for cholesterol. […]

serum cholesterol [2] = assay: Cholesterol-lowering activity in normocholesterolemic dogs; details: Canis lupus familiaris, po, 120 h, dog, p.o., 5 days, regular chow, read-out: daily dose that significantly lowers serum cholesterol
Method: as §1, with “LDL/VLDL fractions are precipitated in the following manner: 0.35 ml of plasma is aliquoted into Eppendorf tubes to which 12 μl of 2M manganese chloride, 11.2 μl of sodium heparin (Porcine Intestinal, 5000 units/ml), and 8.3 μl of normal saline are added.” left out
(§2) Cholesterol-lowering activity can also be evaluated in normocholesterolemic dogs fed regular chow following the procedure described above, by administration of test compound orally for 5 days; also in normolipomic cynomolgus monkeys.

serum cholesterol [3] = assay: Cholesterol-lowering activity in normolipomic cynomolgus monkeys; details: Macaca fascicularis, po, monkey, p.o., read-out: daily dose that significantly lowers serum cholesterol
Method: as §1, with “LDL/VLDL fractions are precipitated in the following manner: 0.35 ml of plasma is aliquoted into Eppendorf tubes to which 12 μl of 2M manganese chloride, 11.2 μl of sodium heparin (Porcine Intestinal, 5000 units/ml), and 8.3 μl of normal saline are added.” left out
as §2

| SMILES | minimal effective dose (serum cholesterol [1]) | minimal effective dose (serum cholesterol [2]) | minimal effective dose (serum cholesterol [3]) |
| --- | --- | --- | --- |
| Cc1cc(NC(=O)C(=O)O)cc(C)c1Oc1ccc(O)c(C(C)C)c1 [N-[3,5-dimethyl-4-(4'-hydroxy-3'-isopropylphenoxy)-phenyl]oxamic acid] | ~0.02 mg/kg/day | ~0.03 mg/kg/day |  |
| CCOC(=O)C(=O)Nc1cc(C)c(Oc2ccc(O)c(C(O)c3ccc(F)cc3)c2)c(C)c1 (centres unmarked) [ethyl N-[4-[3'-[(4-fluorophenyl) hydroxymethyl]-4'-hydroxyphenoxy]-3,5-dimethylphenyl]oxamate] | ~0.005 mg/kg/day | ~0.01 mg/kg/day | ~0.001 mg/kg/day |
